Experimental data from ChEMBL document CHEMBL4507280 (2021).

Tests used:
[1] = target: AP2-associated protein kinase 1 (Homo sapiens) (UniProt Q2M2I8); conditions: Compound concentration 1000.0 nM
[2] = system: Tyrosine-protein kinase ABL1 (Homo sapiens), P00519 [H396P]; conditions: Compound concentration 1000.0 nM
[3] = target: 5'-AMP-activated protein kinase catalytic subunit alpha-1 (Homo sapiens) (UniProt Q13131); conditions: Compound concentration 1000.0 nM
[4] = target: Ankyrin repeat and protein kinase domain-containing protein 1 (Homo sapiens) (UniProt Q8NFD2); conditions: Compound concentration 1000.0 nM
[5] = target: BMP-2-inducible protein kinase (Homo sapiens) (UniProt Q9NSY1); conditions: Compound concentration 1000.0 nM
[6] = target: Bone morphogenetic protein receptor type-1A (Homo sapiens) (UniProt P36894); conditions: Compound concentration 1000.0 nM
[7] = target: Protein-tyrosine kinase 6 (Homo sapiens) (UniProt Q13882); conditions: Compound concentration 1000.0 nM
[8] = target: Calcium/calmodulin-dependent protein kinase type 1D (Homo sapiens) (UniProt Q8IU85); conditions: Compound concentration 1000.0 nM
[9] = target: Cyclin-dependent kinase 19 (Homo sapiens) (UniProt Q9BWU1); conditions: Compound concentration 1000.0 nM
[10] = target: Serine/threonine-protein kinase Chk1 (Homo sapiens) (UniProt O14757); conditions: Compound concentration 1000.0 nM
[11] = target: Dual specificity protein kinase CLK3 (Homo sapiens) (UniProt P49761); conditions: Compound concentration 1000.0 nM
[12] = target: Casein kinase II subunit alpha (Homo sapiens) (UniProt P68400); conditions: Compound concentration 1000.0 nM
[13] = target: Serine/threonine-protein kinase DCLK3 (Homo sapiens) (UniProt Q9C098); conditions: Compound concentration 1000.0 nM
[14] = target: Dual specificity tyrosine-phosphorylation-regulated kinase 2 (Homo sapiens) (UniProt Q92630); conditions: Compound concentration 1000.0 nM
[15] = system: Epidermal growth factor receptor (Homo sapiens), P00533 [UNDEFINED MUTATION]; conditions: Compound concentration 1000.0 nM
[16] = target: Ephrin type-A receptor 5 (Homo sapiens) (UniProt P54756); conditions: Compound concentration 1000.0 nM
[17] = system: Receptor-type tyrosine-protein kinase FLT3 (Homo sapiens), P36888 [R834Q]; conditions: Compound concentration 1000.0 nM
[18] = target: Tyrosine-protein kinase FRK (Homo sapiens) (UniProt P42685); conditions: Compound concentration 1000.0 nM
[19] = system: eIF-2-alpha kinase GCN2 (Homo sapiens), Q9P2K8 [S808G]; conditions: Compound concentration 1000.0 nM
[20] = target: Tyrosine-protein kinase HCK (Homo sapiens) (UniProt P08631); conditions: Compound concentration 1000.0 nM
[21] = target: Serine/threonine-protein kinase STK11 (Homo sapiens) (UniProt Q15831); conditions: Compound concentration 1000.0 nM
[22] = target: Serine/threonine-protein kinase 10 (Homo sapiens) (UniProt O94804); conditions: Compound concentration 1000.0 nM
[23] = target: Leucine-rich repeat serine/threonine-protein kinase 2 (Homo sapiens) (UniProt Q5S007); conditions: Compound concentration 1000.0 nM
[24] = system: Hepatocyte growth factor receptor (Homo sapiens), P08581 [M1250T]; conditions: Compound concentration 1000.0 nM
[25] = target: Serine/threonine-protein kinase Nek1 (Homo sapiens) (UniProt Q96PY6); conditions: Compound concentration 1000.0 nM
[26] = target: Serine/threonine-protein kinase Nek5 (Homo sapiens) (UniProt Q6P3R8); conditions: Compound concentration 1000.0 nM
[27] = target: Phosphatidylinositol 4,5-bisphosphate 3-kinase catalytic subunit gamma isoform (Homo sapiens) (UniProt P48736); conditions: Compound concentration 1000.0 nM
[28] = target: Serine/threonine-protein kinase PLK3 (Homo sapiens) (UniProt Q9H4B4); conditions: Compound concentration 1000.0 nM
[29] = target: Protein kinase C epsilon type (Homo sapiens) (UniProt Q02156); conditions: Compound concentration 1000.0 nM
[30] = target: Protein-tyrosine kinase 2-beta (Homo sapiens) (UniProt Q14289); conditions: Compound concentration 1000.0 nM
[31] = target: Mitogen-activated protein kinase kinase kinase 7 (Homo sapiens) (UniProt O43318); conditions: Compound concentration 1000.0 nM
[32] = target: Serine/threonine-protein kinase tousled-like 2 (Homo sapiens) (UniProt Q86UE8); conditions: Compound concentration 1000.0 nM
[33] = target: Serine/threonine-protein kinase ULK1 (Homo sapiens) (UniProt O75385); conditions: Compound concentration 1000.0 nM
[34] = target: Serine/threonine-protein kinase ULK3 (Homo sapiens) (UniProt Q6PHR2); conditions: Compound concentration 1000.0 nM
[35] = target: Wee1-like protein kinase 2 (Homo sapiens) (UniProt P0C1S8); conditions: Compound concentration 1000.0 nM
[36] = target: 5-hydroxytryptamine receptor 6 (Homo sapiens) (UniProt P50406); conditions: Compound concentration 10.0 uM
[37] = target: D(2) dopamine receptor (Homo sapiens) (UniProt P14416); conditions: Compound concentration 10.0 uM
[38] = target: T1, Alpha-1B adrenergic receptor (Homo sapiens) (UniProt P35368); conditions: Compound concentration 10.0 uM
T1 sequence (whole entry): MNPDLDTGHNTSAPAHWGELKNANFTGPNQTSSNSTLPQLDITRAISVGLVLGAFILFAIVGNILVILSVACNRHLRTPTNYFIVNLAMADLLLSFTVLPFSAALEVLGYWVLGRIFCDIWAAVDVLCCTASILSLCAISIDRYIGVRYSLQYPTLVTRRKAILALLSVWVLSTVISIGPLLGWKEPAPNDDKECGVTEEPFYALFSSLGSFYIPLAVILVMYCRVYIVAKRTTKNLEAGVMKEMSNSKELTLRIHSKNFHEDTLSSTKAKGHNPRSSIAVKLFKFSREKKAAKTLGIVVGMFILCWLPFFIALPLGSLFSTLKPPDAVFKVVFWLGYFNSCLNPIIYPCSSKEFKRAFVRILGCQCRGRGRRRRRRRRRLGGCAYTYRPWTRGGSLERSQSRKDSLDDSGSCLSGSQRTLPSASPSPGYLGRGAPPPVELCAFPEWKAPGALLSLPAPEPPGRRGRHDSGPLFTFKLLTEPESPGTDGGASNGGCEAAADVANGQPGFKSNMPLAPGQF

Sequence of Serine/threonine-protein kinase Chk1 (Homo sapiens) (O14757 whole entry): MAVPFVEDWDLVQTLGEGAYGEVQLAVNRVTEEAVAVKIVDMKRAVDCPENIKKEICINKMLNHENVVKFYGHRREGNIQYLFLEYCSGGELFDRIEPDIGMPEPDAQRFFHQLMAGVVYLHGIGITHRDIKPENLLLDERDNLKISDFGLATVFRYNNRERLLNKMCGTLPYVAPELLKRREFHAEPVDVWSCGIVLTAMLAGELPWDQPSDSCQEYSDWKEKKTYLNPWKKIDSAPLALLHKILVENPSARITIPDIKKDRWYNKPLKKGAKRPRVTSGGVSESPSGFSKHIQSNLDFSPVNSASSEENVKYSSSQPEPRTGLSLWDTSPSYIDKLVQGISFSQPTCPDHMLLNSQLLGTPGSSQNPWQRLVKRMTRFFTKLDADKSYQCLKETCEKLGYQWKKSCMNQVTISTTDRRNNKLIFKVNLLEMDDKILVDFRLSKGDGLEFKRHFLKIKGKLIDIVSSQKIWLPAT
Sequence of Serine/threonine-protein kinase 10 (Homo sapiens) (O94804 whole entry, looked up): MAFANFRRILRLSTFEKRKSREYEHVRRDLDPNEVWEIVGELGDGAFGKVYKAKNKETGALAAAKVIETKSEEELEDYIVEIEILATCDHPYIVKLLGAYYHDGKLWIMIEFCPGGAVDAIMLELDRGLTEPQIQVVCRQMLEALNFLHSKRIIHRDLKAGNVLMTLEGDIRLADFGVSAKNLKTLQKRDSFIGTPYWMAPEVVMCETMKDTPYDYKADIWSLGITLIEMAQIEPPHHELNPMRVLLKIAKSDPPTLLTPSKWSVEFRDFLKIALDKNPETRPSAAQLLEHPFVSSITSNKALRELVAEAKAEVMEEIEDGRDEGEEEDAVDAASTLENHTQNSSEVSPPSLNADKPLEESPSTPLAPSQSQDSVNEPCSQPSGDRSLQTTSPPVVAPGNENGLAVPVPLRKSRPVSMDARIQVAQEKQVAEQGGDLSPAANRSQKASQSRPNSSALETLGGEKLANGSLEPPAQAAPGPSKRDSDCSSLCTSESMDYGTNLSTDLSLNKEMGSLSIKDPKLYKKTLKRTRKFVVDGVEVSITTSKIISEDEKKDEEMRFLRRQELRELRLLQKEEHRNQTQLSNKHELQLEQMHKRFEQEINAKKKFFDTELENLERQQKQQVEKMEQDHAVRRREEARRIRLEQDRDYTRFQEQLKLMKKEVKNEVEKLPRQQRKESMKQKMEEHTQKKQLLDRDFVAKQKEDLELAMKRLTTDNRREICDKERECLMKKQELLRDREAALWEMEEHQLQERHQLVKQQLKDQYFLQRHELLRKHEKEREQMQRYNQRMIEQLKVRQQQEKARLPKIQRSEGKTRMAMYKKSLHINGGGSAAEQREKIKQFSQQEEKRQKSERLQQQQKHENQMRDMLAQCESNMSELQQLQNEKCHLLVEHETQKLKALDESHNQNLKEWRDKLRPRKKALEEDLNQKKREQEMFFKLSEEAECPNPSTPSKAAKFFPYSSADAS
Sequence of 5-hydroxytryptamine receptor 6 (Homo sapiens) (P50406 whole entry): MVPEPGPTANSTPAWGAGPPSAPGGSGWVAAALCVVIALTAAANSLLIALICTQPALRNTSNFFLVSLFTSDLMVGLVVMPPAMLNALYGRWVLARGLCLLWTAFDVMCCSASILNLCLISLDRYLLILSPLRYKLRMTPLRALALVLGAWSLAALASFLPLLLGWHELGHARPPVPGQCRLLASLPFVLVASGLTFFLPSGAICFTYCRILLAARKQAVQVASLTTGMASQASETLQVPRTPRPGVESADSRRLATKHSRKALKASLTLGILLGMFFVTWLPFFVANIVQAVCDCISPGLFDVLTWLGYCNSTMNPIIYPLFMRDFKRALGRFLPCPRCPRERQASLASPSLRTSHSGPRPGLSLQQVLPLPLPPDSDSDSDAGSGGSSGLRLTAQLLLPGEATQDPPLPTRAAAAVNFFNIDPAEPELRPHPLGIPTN
Sequence of Serine/threonine-protein kinase STK11 (Homo sapiens) (Q15831 whole entry): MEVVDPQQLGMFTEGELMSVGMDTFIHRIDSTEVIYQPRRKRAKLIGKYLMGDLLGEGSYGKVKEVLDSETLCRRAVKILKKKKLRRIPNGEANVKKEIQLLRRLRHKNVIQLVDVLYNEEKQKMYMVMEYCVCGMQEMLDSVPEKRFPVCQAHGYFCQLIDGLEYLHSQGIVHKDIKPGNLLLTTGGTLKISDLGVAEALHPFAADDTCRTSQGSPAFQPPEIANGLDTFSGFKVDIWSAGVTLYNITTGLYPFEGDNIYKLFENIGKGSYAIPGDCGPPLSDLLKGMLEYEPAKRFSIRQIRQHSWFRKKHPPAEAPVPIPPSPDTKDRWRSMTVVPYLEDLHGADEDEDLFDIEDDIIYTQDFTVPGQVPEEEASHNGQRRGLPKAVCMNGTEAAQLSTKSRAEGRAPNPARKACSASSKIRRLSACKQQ
Sequence of Ankyrin repeat and protein kinase domain-containing protein 1 (Homo sapiens) (Q8NFD2 whole entry, the tested form may be a part): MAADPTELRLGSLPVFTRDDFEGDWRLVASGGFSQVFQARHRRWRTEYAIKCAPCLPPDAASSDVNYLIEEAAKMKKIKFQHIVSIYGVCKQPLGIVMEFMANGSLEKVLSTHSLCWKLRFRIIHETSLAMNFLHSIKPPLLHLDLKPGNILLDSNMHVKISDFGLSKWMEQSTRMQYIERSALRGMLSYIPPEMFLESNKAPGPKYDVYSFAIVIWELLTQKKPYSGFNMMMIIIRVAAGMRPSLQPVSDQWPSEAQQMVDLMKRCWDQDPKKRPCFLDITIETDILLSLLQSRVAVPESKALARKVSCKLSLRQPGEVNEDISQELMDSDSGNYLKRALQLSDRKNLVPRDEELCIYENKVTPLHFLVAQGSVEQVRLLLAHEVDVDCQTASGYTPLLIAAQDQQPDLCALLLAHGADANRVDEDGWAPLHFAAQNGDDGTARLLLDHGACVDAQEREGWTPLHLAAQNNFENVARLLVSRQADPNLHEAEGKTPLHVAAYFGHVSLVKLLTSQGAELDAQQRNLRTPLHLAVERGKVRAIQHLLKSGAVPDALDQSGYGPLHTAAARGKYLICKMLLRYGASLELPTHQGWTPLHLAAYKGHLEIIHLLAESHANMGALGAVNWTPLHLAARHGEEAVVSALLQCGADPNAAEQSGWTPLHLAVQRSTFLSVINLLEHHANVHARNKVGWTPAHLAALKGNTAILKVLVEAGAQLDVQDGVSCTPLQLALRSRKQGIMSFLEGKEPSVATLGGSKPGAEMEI
Sequence of Serine/threonine-protein kinase DCLK3 (Homo sapiens) (Q9C098 whole entry): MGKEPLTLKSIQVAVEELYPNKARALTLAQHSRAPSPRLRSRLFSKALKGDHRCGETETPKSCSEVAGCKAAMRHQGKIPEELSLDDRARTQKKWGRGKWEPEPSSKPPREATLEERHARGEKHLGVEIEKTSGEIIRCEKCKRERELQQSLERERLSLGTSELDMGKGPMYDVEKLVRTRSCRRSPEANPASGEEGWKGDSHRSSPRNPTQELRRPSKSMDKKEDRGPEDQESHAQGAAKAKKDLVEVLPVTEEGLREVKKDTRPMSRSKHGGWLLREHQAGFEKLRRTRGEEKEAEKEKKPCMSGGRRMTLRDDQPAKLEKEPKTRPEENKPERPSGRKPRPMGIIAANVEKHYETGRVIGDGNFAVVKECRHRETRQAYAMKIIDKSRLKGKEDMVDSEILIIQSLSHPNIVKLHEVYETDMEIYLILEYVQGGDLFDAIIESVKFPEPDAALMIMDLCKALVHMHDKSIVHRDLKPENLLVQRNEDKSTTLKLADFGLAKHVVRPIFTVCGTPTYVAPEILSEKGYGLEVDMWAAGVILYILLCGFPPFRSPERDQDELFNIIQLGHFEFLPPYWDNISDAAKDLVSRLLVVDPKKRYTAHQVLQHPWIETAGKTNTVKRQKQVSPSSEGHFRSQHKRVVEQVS
Sequence of BMP-2-inducible protein kinase (Homo sapiens) (Q9NSY1 whole entry, looked up): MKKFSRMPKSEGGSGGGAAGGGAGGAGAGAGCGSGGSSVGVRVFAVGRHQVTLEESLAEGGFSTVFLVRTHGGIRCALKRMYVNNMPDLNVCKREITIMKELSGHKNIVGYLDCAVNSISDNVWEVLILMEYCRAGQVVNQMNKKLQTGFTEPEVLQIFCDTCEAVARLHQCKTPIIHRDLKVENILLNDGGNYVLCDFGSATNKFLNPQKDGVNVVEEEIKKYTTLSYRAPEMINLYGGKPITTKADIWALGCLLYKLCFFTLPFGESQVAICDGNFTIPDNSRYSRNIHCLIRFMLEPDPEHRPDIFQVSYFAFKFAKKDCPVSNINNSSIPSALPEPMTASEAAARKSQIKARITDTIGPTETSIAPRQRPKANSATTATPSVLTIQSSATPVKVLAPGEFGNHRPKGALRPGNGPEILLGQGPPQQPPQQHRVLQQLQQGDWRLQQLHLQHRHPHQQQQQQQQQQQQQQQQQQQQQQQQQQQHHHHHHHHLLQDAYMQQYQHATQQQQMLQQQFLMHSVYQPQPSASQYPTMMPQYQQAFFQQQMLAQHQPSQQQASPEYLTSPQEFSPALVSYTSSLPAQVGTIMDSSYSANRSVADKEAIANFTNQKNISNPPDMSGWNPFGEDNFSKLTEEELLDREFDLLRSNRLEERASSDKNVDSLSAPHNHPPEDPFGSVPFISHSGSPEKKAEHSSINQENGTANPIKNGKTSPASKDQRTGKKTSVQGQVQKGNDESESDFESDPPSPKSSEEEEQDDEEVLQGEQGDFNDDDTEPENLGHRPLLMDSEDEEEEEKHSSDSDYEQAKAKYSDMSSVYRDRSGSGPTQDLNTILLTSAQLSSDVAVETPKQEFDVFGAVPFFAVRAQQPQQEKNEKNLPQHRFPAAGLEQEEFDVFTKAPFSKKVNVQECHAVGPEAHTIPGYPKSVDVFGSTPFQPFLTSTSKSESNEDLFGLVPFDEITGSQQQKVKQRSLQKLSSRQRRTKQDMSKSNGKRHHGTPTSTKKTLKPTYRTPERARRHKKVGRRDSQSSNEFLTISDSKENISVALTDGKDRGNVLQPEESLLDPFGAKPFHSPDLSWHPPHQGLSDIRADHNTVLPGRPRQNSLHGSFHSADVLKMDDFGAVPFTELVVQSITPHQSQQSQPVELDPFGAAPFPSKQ

SMILES	residual activity [1] [%]	residual activity [2] [%]	residual activity [3] [%]	residual activity [4] [%]	residual activity [5] [%]	residual activity [6] [%]	residual activity [7] [%]	residual activity [8] [%]	residual activity [9] [%]	residual activity [10] [%]	residual activity [11] [%]	residual activity [12] [%]	residual activity [13] [%]	residual activity [14] [%]	residual activity [15] [%]	residual activity [16] [%]	residual activity [17] [%]	residual activity [18] [%]	residual activity [19] [%]	residual activity [20] [%]	further results
CCC(=O)N[C@H]1CC[C@@H](C(=O)N(C)c2ccc(-c3nc4ccccc4o3)cc2)C1 [BI 99179]	100	100	99	66	91	88	100	100	100	100	91	74	87	87	100	78	100	100	100	100	residual activity [21]: 100%; residual activity [22]: 100%; residual activity [23]: 71%; residual activity [24]: 92%; residual activity [25]: 100%; residual activity [26]: 100%; residual activity [27]: 99%; residual activity [28]: 74%; residual activity [29]: 90%; residual activity [30]: 100%; residual activity [31]: 86%; residual activity [32]: 100%; residual activity [33]: 78%; residual activity [34]: 67%; residual activity [35]: 96%; inhibition [36]: 3.86%; inhibition [37]: 14.3%; inhibition [38]: -6.32%
CCC(=O)N[C@@H]1CC[C@H](C(=O)N(C)c2ccc(-c3nc4ccccc4o3)cc2)C1 [BI 99990]	100	46	91	100	100	96	90	100	82	100	100	98	100	100	88	100	100	100	54	100	residual activity [21]: 51%; residual activity [22]: 89%; residual activity [23]: 100%; residual activity [24]: 100%; residual activity [25]: 100%; residual activity [26]: 100%; residual activity [27]: 75%; residual activity [28]: 84%; residual activity [29]: 93%; residual activity [30]: 100%; residual activity [31]: 100%; residual activity [32]: 100%; residual activity [33]: 100%; residual activity [34]: 66%; residual activity [35]: 100%; inhibition [36]: 10.1%; inhibition [37]: 18.6%; inhibition [38]: -6.47%
